# Tests used:
# Type in all cases: cell-based, human
# MCF-7 cells = experiment: Apoptosis by flow cytometry (Annexin V-PE/7-AAD); conditions: MCF-7, 24 h
# Procedure: (§1) Cells (2 × 10^5 cells/mL) were seeded on 6-well tissue culture plates, and grown for 1 day up to 70–80% confluence before treatment with the test substance. The TTHL was added to medium with FBS to obtain the different concentrations, and cells were treated at 37°C for 24 h in humidified atmosphere containing 5% CO2.
# Annexin V-PE was used in conjunction with a vital dye, 7-AAD, to distinguish apoptotic (Annexin V-PE positive, 7-AAD negative) from necrotic (Annexin V-PE positive, 7-AAD positive) cells. After treatment, cells were trypsinized, collected and resuspended in 40 μL of binding buffer with 2 μL Annexin V-PE. Cells were incubated for 15 min in the dark at room temperature. After incubation, 160 μL of binding buffer and 2 μL of 7-AAD were added. Cells were incubated for 5 min and additional 200 μL of binding buffer were added. Before analysis, cells were filtered through a cell strainer cap fitted to a polystyrene round bottom flow cytometric tube. Data were collected and analyzed by a FACS Calibur flow cytometer with CellQuest software, in a total of 10,000 events per sample; fluorescence was measured and the percentage of viable, early apoptotic, late apoptotic and necrotic cells was determined.
# [1] = system: CACO-2 (colorectal adenocarcinoma); experiment: XTT cell viability assay, CACO-2; conditions: for IC50: Homo sapiens, XTT
# Procedure: The human cell lines MCF-7 (breast adenocarcinoma), HepG2 (hepatoma), T24 (bladder cancer), CACO-2 (colorectal adenocarcinoma) and MRC5 (lung normal fibroblast) were obtained from the Rio de Janeiro Cell Bank (Rio de Janeiro, RJ, Brazil). The HCT116 cell (colorectal carcinoma), and HT29 cell (colorectal adenocarcinoma) were kindly provided by Dr. Annette K. Larsen (Institut National de la Santé et de la Recherche Médicale - INSERM, Paris, França). All cell lines except MCF-7 were grown in DMEM supplemented with 10% or 20% (for CACO-2) FBS, 100 units.mL^-1 penicillin and 100 μg.mL^-1 streptomycin at 37°C in a humidified atmosphere of 5% CO2. MCF-7 cells were maintained in RPMI-1640 supplemented with 20% FBS at the same conditions described above.
# The cytotoxic potential of the TTHL was evaluated by the XTT assay in human tumor cell lines as well as in MRC5 normal fibroblasts. Cells (1 × 10^4 cells) were seeded on 96-well plates in growth medium and incubated overnight. Afterwards, TTHL (0.5, 1.0, 2.5, 5.0, and 10 μg/mL) was added to each well and incubated for 24, 48, 72, and 120 h. Mitoxantrone, a cytostatic anthracenedione that intercalates in DNA and increases the incidence of double-strand breaks by stabilizing the cleavable complex of topoisomerase II and DNA, was used as positive control. At the end of each treatment, cell viability was assessed according to the manufacturer’s instructions. Briefly, after discarding the medium, 1 mL of XTT labeling mixture was added to the cells and incubated for 2 h at 37°C. Absorbance was measured with a SpectraMax reader (Bio-Rad, USA) at a test wavelength of 492 nm (A492) and a reference wavelength of 690 nm (A690). The final result corresponds to A492-A690. The absorbance of negative control cells was set as 100% viability, and the values for treated cells were calculated as a percentage of the control.
# The IC20, IC50, and IC80 values and their 95% confidence intervals (CI 95%) were obtained by nonlinear regression using GraphPad Prism v5 program (Intuitive Software for Science, San Diego, CA, USA). Selective index (SI) was calculated by IC50 in MRC5 cells/IC50 in tumoral cells. All experiments were independently repeated at least three times, with triplicate samples for each treatment. Results are expressed as means ± standard deviation (SD). Data were analyzed by one-way analysis of variance (ANOVA), and means were compared using Tukey test, with P ≤ 0.05 considered as statistically significant.
# [2] = system: intracellular ROS in MCF-7 cells; experiment: ROS detection by flow cytometry (H2DCFDA)
# Procedure: as §1
# Levels of intracellular ROS were estimated following treatment with TTHL using 2′,7′-dichlorofluorescein diacetate (H2DCFDA, Sigma) as a fluorescent probe. Detection of oxidative stress was done by incubating the cells with 20 μM of H2DCFDA for 20 min at 37°C. Cells were then detached by trypsinization and washed twice with PBS. After filtration through cell strainer cap, cells were analyzed using a FACS Calibur flow cytometer with CellQuest software in accordance with Bass et al.. A total of 10,000 events were measured per sample. DCF fluorescence intensity was shown in arbitrary units.
# [3] = system: cleaved caspase-9 in MCF-7 cells; experiment: Quantification of cleaved caspase-9 by flow cytometric analysis; conditions: MCF-7, 24 h
# Procedure: as §1
# After treatment, cells (1 × 10^6) were harvested, resuspended in 25 μL PBS and fixed with 4% formaldehyde. After permeabilization and blocking (0.2% Triton X-100 in PBS and 1% BSA), cells were incubated with anti-caspase-9 antibody (diluted 1:1000) for 1 h at room temperature, followed by incubation with anti-rabbit FITC secondary antibody (Uniscience) (diluted 1:1000) for 1 h at room temperature in the dark. A total of 10,000 events were analyzed per sample by FACS Calibur flow cytometer. Fluorescence intensity in arbitrary units was plotted in histograms; the mean fluorescence intensity was calculated using CellQuest software.
smiles,measurement,setting,value
"C=C(C)[C@@H]1CC[C@@]2(C)[C@H]1[C@H]1CC[C@@H]3[C@@]4(C)CC[C@H](O)C(C)(C)[C@@H]4[C@H](O)C[C@@]3(C)[C@]1(C)C[C@@H]2O [TTHL, 3β,6β,16β-trihydroxy-lup-20(29)-ene]",apoptosis induced (% of MCF-7 cells),MCF-7 cells; TTHL at IC50,14%
same,percentage of necrotic cells (labeled with 7-AAD),MCF-7 cells; TTHL at IC50,less than 5%
same,cells in early apoptosis (labeled with annexin V-PE),MCF-7 cells; TTHL at IC80,approximately 55%
same,cells in late apoptosis (labeled with both annexin V-PE and 7-AAD),MCF-7 cells; TTHL at IC80,15%
same,percentage of necrotic cells (labeled with 7-AAD),MCF-7 cells; TTHL at IC80,less than 5%
same,IC50,"[1]; CACO-2, 24 h treatment",8.55 ± 0.35 mg/L
same,IC50,"[1]; CACO-2, 48 h treatment",7.9 ± 0.28 mg/L
same,IC50,"[1]; CACO-2, 72 h treatment",6.35 ± 0.35 mg/L
same,IC50,"[1]; CACO-2, 120 h treatment",5 ± 0.19 mg/L
same,Selectivity index (SI),"[1]; IC50 in MRC5 cells/IC50 in CACO-2, 24 h",MR (MR: more resistant in tumoral cells)
same,Selectivity index (SI),"[1]; IC50 in MRC5 cells/IC50 in CACO-2, 48 h",MR (MR: more resistant in tumoral cells)
same,Selectivity index (SI),"[1]; IC50 in MRC5 cells/IC50 in CACO-2, 72 h",1 X
same,Selectivity index (SI),"[1]; IC50 in MRC5 cells/IC50 in CACO-2, 120 h",1 X
same,increase in intracellular ROS production,"[2]; MCF-7, 24 h treatment at IC50",49%
same,increase in intracellular ROS production,"[2]; MCF-7, 24 h treatment at IC80",64%
same,levels of cleaved caspase-9,[3]; TTHL at IC20,no significant changes
same,induction of cleaved caspase-9-labeled cells,[3]; TTHL at IC50,increased induction of cleaved caspase-9-labeled cells
same,induction of cleaved caspase-9-labeled cells,[3]; TTHL at IC80,increased induction of cleaved caspase-9-labeled cells

# — article PMC4129108, “The natural triterpene 3β,6β,16β-trihydroxy-lup-20(29)-ene obtained from the flowers of Combretum leprosum induces apoptosis in MCF-7 breast cancer cells” (BMC Complementary and Alternative Medicine, 2014)
